From patent EP2929883A1, “Pyrazole derivatives as dihydroorotate dehydrogenase (DHODH) inhibitors” (INSTITUT PASTEUR, priority 2014, dated 2015) come the findings set out here.

Converted amounts (≈) assume the structure as drawn.

This assay relates to measles virus. The assay can be described thus: microbe, parasite or virus in culture. As to conditions: Measles morbillivirus, 24 h.
In turn, `COc1cc(C2CC2)cnc1-n1cc(Oc2ccccc2)c(OC(C)C)n1` [example 184, 5-cyclopropyl-2-(3-isopropoxy-4-phenoxy-1H-pyrazol-1-yl)-3-methoxypyridine] returned an MIC50 of 0.0005 to 0.05 µM (≈ 0.000183 to 0.0183 µg/mL). Consider `CCc1ccc(-n2nc(OC(C)C)c(Oc3c(F)cccc3F)c2C)nc1` [example 9B, 2-(4-(2,6-difluorophenoxy)-3-isopropoxy-5-methyl-1H-pyrazol-1-yl)-5-ethylpyridine], for which the MIC50 fell in the range of 0.05 to 0.5 µM (≈ 0.0187 to 0.187 µg/mL).

As to `Cc1ccc(-n2nc(OC(C)C)c(Oc3c(F)cccc3F)c2C)nn1` [example 12, 3-(4-(2,6-difluorophenoxy)-3-isopropoxy-5-methyl-1H-pyrazol-1-yl)-6-methylpyridazine], the MIC50 fell in the range of 0.0005 to 0.05 µM (≈ 0.00018 to 0.018 µg/mL). In turn, `CCOc1cc(Cc2ccccc2)n(-c2ccccn2)n1` [example 3, 2-(5-benzyl-3-ethoxy-1H-pyrazol-1-yl)pyridine] returned an MIC50 above 5 µM.

`Cc1c(Cc2ccccc2F)c(OC(C)C)nn1-c1ccc(C2CC2)cn1` [example 90, 5-cyclopropyl-2-(4-(2-fluorobenzyl)-3-isopropoxy-5-methyl-1H-pyrazol-1-yl)pyridine] yielded an MIC50 of 0.05 to 0.5 µM (≈ 0.0183 to 0.183 µg/mL). The compound `CC(C)Oc1nn(-c2ccc(C3CC3)cn2)cc1S(=O)(=O)c1ccccc1` [example 180, 5-cyclopropyl-2-(3-isopropoxy-4-(phenylsulfonyl)-1H-pyrazol-1-yl)pyridine] returned an MIC50 of 0.05 to 0.5 µM (≈ 0.0192 to 0.192 µg/mL).

`CCOc1nn(-c2ccc(C3CC3)cn2)c(C)c1Oc1cc(Cl)cc(Cl)c1` [example 96, 5-cyclopropyl-2-(4-(3,5-dichlorophenoxy)-3-ethoxy-5-methyl-1H-pyrazol-1-yl)pyridine] had an MIC50 of 0.05 to 0.5 µM (≈ 0.0202 to 0.202 µg/mL). Consider `Cc1c(Oc2c(F)cccc2F)c(OC(C)C)nn1-c1ccc(Br)cn1` [example 59, 5-bromo-2-(4-(2,6-difluorophenoxy)-3-isopropoxy-5-methyl-1H-pyrazol-1-yl)pyridine], for which the MIC50 lay in the range of 0.05 to 0.5 µM (≈ 0.0212 to 0.212 µg/mL).

As for `CCOc1nn(-c2ncc(CC)cn2)cc1I` [example 107, 2-(3-ethoxy-4-iodo-1H-pyrazol-1-yl)-5-ethylpyrimidine], the MIC50 is above 5 µM. For `Cc1c(Oc2c(F)cccc2F)c(OC(C)C)nn1-c1ncc(C2CC2)cc1O` [example 187, 5-cyclopropyl-2-(4-(2,6-difluorophenoxy)-3-isopropoxy-5-methyl-1H-pyrazol-1-yl)pyridin-3-ol] the value was 0.0005 to 0.05 µM (≈ 0.000201 to 0.0201 µg/mL). In turn, `CCN(CC)Cc1c(Cc2ccccc2)c(OC(C)C)nn1-c1ncc(C2CC2)cn1` [example 169, N-((4-benzyl-1-(5-cyclopropylpyrimidin-2-yl)-3-isopropoxy-1H-pyrazol-5-yl)methyl)-N-ethylethanamine] displayed an MIC50 above 5 µM.

Regarding `CCOc1nn(-c2ccc(C3CC3)cn2)c(C)c1C(=O)c1ccccc1` [example 151, (1-(5-cyclopropylpyridin-2-yl)-3-ethoxy-5-methyl-1H-pyrazol-4-yl)(phenyl)methanone], the MIC50 fell in the range of 0.05 to 0.5 µM (≈ 0.0174 to 0.174 µg/mL). As to `CCOc1nn(-c2ncc(C)cn2)c(C)c1Cc1ccccc1` [example 171, 2-(4-benzyl-3-ethoxy-5-methyl-1H-pyrazol-1-yl)-5-methylpyrimidine], the MIC50 lay within 0.0005 to 0.05 µM (≈ 0.000154 to 0.0154 µg/mL). Take `CCc1cnc(-n2[nH]c(=O)c(Cc3ccccc3)c2C)nc1` [example 135, 4-benzyl-1-(5-ethylpyrimidin-2-yl)-5-methyl-1H-pyrazol-3(2H)-one]: the MIC50 was 0.5 to 5 µM (≈ 0.147 to 1.47 µg/mL).

In the case of `Cc1c(Oc2cc(F)ccc2F)c(OC(C)C)nn1-c1ccc(C2CC2)cn1` [example 18, 5-cyclopropyl-2-(4-(2,5-difluorophenoxy)-3-isopropoxy-5-methyl-1H-pyrazol-1-yl)pyridine], the MIC50 was 0.0005 to 0.05 µM (≈ 0.000193 to 0.0193 µg/mL). As for `CCc1cnc(-n2nc(OC(C)C)c(Cc3cccc(OC)c3)c2C)nc1` [example 102, 5-ethyl-2-(3-isopropoxy-4-(3-methoxybenzyl)-5-methyl-1H-pyrazol-1-yl)pyrimidine], the MIC50 was 0.0005 to 0.05 µM (≈ 0.000183 to 0.0183 µg/mL). As for `CC(C)Oc1nn(-c2ccc(C3CC3)cn2)cc1[S+]([O-])c1ccccc1` (stereo not shown) [example 181, 5-cyclopropyl-2-(3-isopropoxy-4-(phenylsulfinyl)-1H-pyrazol-1-yl)pyridine], the MIC50 lay in the range of 0.5 to 5 µM (≈ 0.184 to 1.84 µg/mL). For `Cc1c(Oc2c(F)cccc2F)c(OC(C)C)nn1-c1ccc(C2CC2)nn1` [example 7, 3-cyclopropyl-6-(4-(2,6-difluorophenoxy)-3-isopropoxy-5-methyl-1H-pyrazol-1-yl)pyridazine] the value was 0.0005 to 0.05 µM (≈ 0.000193 to 0.0193 µg/mL). In turn, `CCOc1nn(-c2ccccn2)c(C)c1Cc1ccccc1` [example 30, 2-(4-benzyl-3-ethoxy-5-methyl-1H-pyrazol-1-yl)pyridine] had an MIC50 above 5 µM. As to `COc1nn(-c2ccc(C)cn2)c(C)c1Cc1ccccc1` [example 137, 2-(4-benzyl-3-methoxy-5-methyl-1H-pyrazol-1-yl)-5-methylpyridine], the MIC50 was 0.5 to 5 µM (≈ 0.147 to 1.47 µg/mL). `CCOc1nn(-c2ncc(CC)cn2)c(C)c1Oc1cccc(Cl)c1Cl` [example 80, 2-(4-(2,3-dichlorophenoxy)-3-ethoxy-5-methyl-1H-pyrazol-1-yl)-5-ethylpyrimidine] registered an MIC50 of 0.05 to 0.5 µM (≈ 0.0197 to 0.197 µg/mL). Regarding `CCOc1nn(-c2ccc(OC)cn2)c(C)c1Cc1ccccc1` [example 125, 2-(4-benzyl-3-ethoxy-5-methyl-1H-pyrazol-1-yl)-5-methoxypyridine], the MIC50 was in the range of 0.5 to 5 µM (≈ 0.162 to 1.62 µg/mL). As for `CCOc1nn(-c2ncc(CC)cn2)c(C)c1Oc1ccccc1` [example 72, 2-(3-ethoxy-5-methyl-4-phenoxy-1H-pyrazol-1-yl)-5-ethylpyrimidine], the MIC50 fell in the range of 0.5 to 5 µM (≈ 0.162 to 1.62 µg/mL). Take `CCOc1nn(-c2ncccc2F)c(C)c1Cc1ccccc1` [example 37, 2-(4-benzyl-3-ethoxy-5-methyl-1H-pyrazol-yl)-3-fluoropyridine]: the MIC50 is above 5 µM. `CCOc1nn(-c2ccccn2)c2c1CCN(Cc1ccccc1)C2` [example 1, 6-benzyl-3-ethoxy-1-(pyridin-2-yl)-4,5,6,7-tetrahydro-1H-pyrazolo[3,4-c]pyridine] had an MIC50 above 5 µM.

With `Cc1c(Oc2c(F)cccc2F)c(OC(C)C)nn1-c1ncc(F)cn1` [example 14, 2-(4-(2,6-difluorophenoxy)-3-isopropoxy-5-methyl-1H-pyrazol-1-yl)-5-fluoropyrimidine], the MIC50 was in the range of 0.05 to 0.5 µM (≈ 0.0182 to 0.182 µg/mL). `CCOc1nn(-c2ncc(OC)cn2)c(C)c1Cc1ccccc1` [example 112, 2-(4-benzyl-3-ethoxy-5-methyl-1H-pyrazol-1-yl)-5-methoxypyrimidine]: the MIC50 lay within 0.5 to 5 µM (≈ 0.162 to 1.62 µg/mL). As for `c1ccc(Oc2cn(-c3ncc(C4CC4)cn3)nc2C2CC2)cc1` [example 119, 5-cyclopropyl-2-(3-cyclopropyl-4-phenoxy-1H-pyrazol-1-yl)pyrimidine], the MIC50 fell in the range of 0.0005 to 0.05 µM (≈ 0.000159 to 0.0159 µg/mL). `CCOc1nn(-c2ncc(CC)cn2)c(C)c1Sc1ccccc1` [example 152, 2-(3-ethoxy-5-methyl-4-(phenylthio)-1H-pyrazol-1-yl)-5-ethylpyrimidine] gave an MIC50 of 0.05 to 0.5 µM (≈ 0.017 to 0.17 µg/mL). Compound `COc1cc(C2CC2)cnc1-n1cc(Oc2ccccc2F)c(OC(C)C)n1` [example 185, 5-cyclopropyl-2-(4-(2-fluorophenoxy)-3-isopropoxy-1H-pyrazol-1-yl)-3-methoxypyridine] registered an MIC50 of 0.05 to 0.5 µM (≈ 0.0192 to 0.192 µg/mL). `CCc1cnc(-n2nc(OCCO)c(Cc3ccccc3)c2C)nc1` [example 193, 2-(4-benzyl-1-(5-ethylpyrimidin-2-yl)-5-methyl-1H-pyrazol-3-yloxy)ethanol]: the MIC50 lay in the range of 0.05 to 0.5 µM (≈ 0.0169 to 0.169 µg/mL). Next, `CCOc1nn(-c2ccccn2)c(C)c1-c1cccc(Cl)c1` [example 156, 2-(4-(3-chlorophenyl)-3-ethoxy-5-methyl-1H-pyrazol-1-yl)pyridine]: above 5 µM. `CC(C)Oc1nn(-c2ncc(C3CC3)cc2F)cc1Oc1ccccc1` [example 70, 5-cyclopropyl-3-fluoro-2-(3-isopropoxy-4-phenoxy-1H-pyrazol-1-yl)pyridine] had an MIC50 of 0.0005 to 0.05 µM (≈ 0.000177 to 0.0177 µg/mL). Compound `CCOc1nn(-c2ncc(C3CC3)cc2F)c(C)c1Cc1ccccc1` [example 35, 2-(4-benzyl-3-ethoxy-5-methyl-1H-pyrazol-1-yl)-5-cyclopropyl-3-fluoropyridine] displayed an MIC50 of 0.05 to 0.5 µM (≈ 0.0176 to 0.176 µg/mL).

On to `Cc1cnc(-n2nc(OC(C)C)c(Oc3c(F)cccc3F)c2C)nc1O` [example 116, 2-(4-(2,6-difluorophenoxy)-3-isopropoxy-5-methyl-1H-pyrazol-1-yl)-5-methylpyrimidin-4-ol], for which the MIC50 lay in the range of 0.05 to 0.5 µM (≈ 0.0188 to 0.188 µg/mL). As to `CCOc1nn(-c2ncc(CC)cn2)c(C)c1Oc1cccc(C(F)(F)F)c1` [example 57, 2-(3-ethoxy-5-methyl-4-(3-(trifluoromethyl)phenoxy)-1H-pyrazol-1-yl)-5-ethylpyrimidine], the MIC50 was 0.05 to 0.5 µM (≈ 0.0196 to 0.196 µg/mL). For the compound `CC(C)Oc1nn(-c2ncc(C3CC3)cn2)cc1Sc1ccccc1` [example 104, 5-cyclopropyl-2-(3-isopropoxy-4-(phenylthio)-1H-pyrazol-1-yl)pyrimidine], the MIC50 fell in the range of 0.0005 to 0.05 µM (≈ 0.000176 to 0.0176 µg/mL). `CC(C)Oc1nn(-c2ncc(C3CC3)cn2)cc1[S+]([O-])c1ccccc1` (stereo not shown) [example 182, 5-cyclopropyl-2-(3-isopropoxy-4-(phenylsulfinyl)-1H-pyrazol-1-yl)pyrimidine] yielded an MIC50 of 0.5 to 5 µM (≈ 0.184 to 1.84 µg/mL).

Compound `CC(C)Oc1nn(-c2ccc(C3CC3)cn2)cc1Sc1ccccc1` [example 105, 5-cyclopropyl-2-(3-isopropoxy-4-(phenylthio)-1H-pyrazol-1-yl)pyridine] showed an MIC50 of 0.05 to 0.5 µM (≈ 0.0176 to 0.176 µg/mL). As to `Cc1c(Oc2c(F)cccc2F)c(OC(C)C)nn1-c1cnc(C2CC2)nc1` [example 133, 2-cyclopropyl-5-(4-(2,6-difluorophenoxy)-3-isopropoxy-5-methyl-1H-pyrazol-1-yl)pyrimidine], the MIC50 is 0.05 to 0.5 µM (≈ 0.0193 to 0.193 µg/mL). Next, `CC(C)Oc1nn(-c2ccc(C3CC3)cn2)c(Cl)c1Oc1ccccc1` [example 191, 2-(5-chloro-3-isopropoxy-4-phenoxy-1H-pyrazol-1-yl)-5-cyclopropylpyridine]: 0.05 to 0.5 µM (≈ 0.0185 to 0.185 µg/mL); `CCOc1nn(-c2ncc(CC)cn2)c(C)c1Oc1ccccc1F` [example 73, 2-(3-ethoxy-4-(2-fluorophenoxy)-5-methyl-1H-pyrazol-1-yl)-5-ethylpyrimidine]: 0.05 to 0.5 µM (≈ 0.0171 to 0.171 µg/mL). Regarding `CCc1cnc(-n2nc(OCCOCc3ccccc3)c(Cc3ccccc3)c2C)nc1` [example 103, 2-(4-benzyl-3-(2-(benzyloxy)ethoxy)-5-methyl-1H-pyrazol-1-yl)-5-ethylpyrimidine], the MIC50 lay in the range of 0.0005 to 0.05 µM (≈ 0.000214 to 0.0214 µg/mL).
